{"source": "patent US12653837B2", "about": "“Use of inhaled nitric oxide and oxygen for the treatment of pulmonary hypertension” (Bellerophon Pulse Technologies LLC, priority 2017, dated 2026)", "key": {"[1]": {"test_system": "symptomatic subjects with PAH", "experiment": "Exercise capacity (change in 6MWD from baseline to 16 weeks), Phase 2 study IK-7001-PAH-201", "format": "in vivo, human", "source_text": "(§1) This study was a Phase 2, placebo controlled, double-blind, randomized, clinical study to determine the safety, tolerability and efficacy of pulsed iNO versus placebo as add-on therapy in symptomatic subjects with PAH (IK-7001-PAH-201; NCT01457781). The primary outcome of this study was change from baseline in pulmonary vascular resistance (PVR). Secondary outcome measure included change in 6MWD, time to first clinical worsening event (TTCW), change in WHO functional class, change in Borg Dyspnea Score (BDS) and change in patient reported outcome (PRO) scores by the SF-36 short form version 2 and the Cambridge Pulmonary Hypertension Outcome Review (CAMPHOR).\n(§2) PAH subjects were administered pulsed iNO at a dose of 25 or 75 mcg/IBW kg/hr for up to 24 hours a day for up to 16 weeks, or received pulsed placebo (99.999% N2) for up to 24 hours a day for up to 16 weeks. The dose of 25 mcg/kg IBW/hr was administered from a mini-cylinder having 2,440 ppm NO and the dose of 75 mcg/kg IBW/hr was administered from a mini-cylinder having 4,880 ppm NO.\n(§3) All subjects were receiving at least one approved PAH therapy and were clinically symptomatic from PAH (e.g. onset or increased dyspnea on exertion, dizziness, near-syncope, syncope, chest pain or peripheral edema).\nAlso shown is the change in exercise capacity, measured as the change in 6MWD from baseline to 16 weeks."}, "[2]": {"test_system": "symptomatic subjects with PAH", "experiment": "Oxygen desaturation (drop in SpO2 from beginning to end of six-minute walk test), Phase 2 study IK-7001-PAH-201", "format": "in vivo, human", "source_text": "as §1, §2, §3\nOxygen desaturation was measured as the drop in SpO2 level from the beginning to the end of the six-minute walk test (6MWT). Oxygen desaturation was measured at baseline and after 16 weeks of chronic treatment with iNO at a dose of 75 mcg/kg IBW/hr (iNO 75) or 25 mcg/kg IBW/hr (iNO 25) or placebo."}}}
{"compound": "[N]=O", "note": "[iNO, nitric oxide]", "values": [{"measurement": "Change in 6MWD (meters)", "setting": "[1]; iNO 25 mcg/kg IBW/hr, pulsed, up to 24 h/day, PAH subjects", "value": 4.7, "unit": "meters"}, {"measurement": "Change in 6MWD (meters)", "setting": "[1]; iNO 75 mcg/kg IBW/hr, No LTOT, PAH subjects", "value": "−20.8", "unit": "meters"}, {"measurement": "Change in 6MWD (meters)", "setting": "[1]; iNO 75 mcg/kg IBW/hr, compliant >12 hrs per day, No LTOT, PAH subjects", "value": "−29.7", "unit": "meters"}, {"measurement": "Change in 6MWD (meters)", "setting": "[1]; iNO 75 mcg/kg IBW/hr, compliant >12 hrs per day, with LTOT, PAH subjects", "value": 52.4, "unit": "meters"}, {"measurement": "Change in 6MWD (meters)", "setting": "[1]; iNO 75 mcg/kg IBW/hr, pulsed, up to 24 h/day, all PAH subjects", "value": 22.8, "unit": "meters"}, {"measurement": "Change in 6MWD (meters)", "setting": "[1]; iNO 75 mcg/kg IBW/hr, with LTOT, PAH subjects", "value": 34.9, "unit": "meters"}, {"measurement": "Change in Oxygen Desaturation (SpO2)", "setting": "[2]; iNO 25 mcg/kg IBW/hr, pulsed, up to 24 h/day, baseline to 16 weeks (LOCF), PAH subjects", "value": "−0.14"}, {"measurement": "Change in Oxygen Desaturation (SpO2)", "setting": "[2]; iNO 75 mcg/kg IBW/hr, pulsed, up to 24 h/day, baseline to 16 weeks (LOCF), all PAH subjects", "value": "−2.19"}, {"measurement": "Change in Oxygen Desaturation (SpO2)", "setting": "[2]; iNO 75 mcg/kg IBW/hr, No LTOT, baseline to 16 weeks, PAH subjects", "value": 0.40}, {"measurement": "Change in Oxygen Desaturation (SpO2)", "setting": "[2]; iNO 75 mcg/kg IBW/hr, compliant >12 hrs per day, No LTOT, baseline to 16 weeks, PAH subjects", "value": 1.33}, {"measurement": "Change in Oxygen Desaturation (SpO2)", "setting": "[2]; iNO 75 mcg/kg IBW/hr, compliant >12 hrs per day, with LTOT, baseline to 16 weeks, PAH subjects", "value": "−3.36"}, {"measurement": "Change in Oxygen Desaturation (SpO2)", "setting": "[2]; iNO 75 mcg/kg IBW/hr, with LTOT, baseline to 16 weeks, PAH subjects", "value": "−3.00"}]}
